Literature values as cited in patent US11752185B2, “Powderized cannabis oil” (Hemp Synergistics, priority 2020, dated 2023).

Conditions: clinical studies; EPIDIOLEX context: seizures associated with Lennox-Gastaut syndrome or Dravet syndrome

C=C(C)[C@@H]1CCC(C)=C[C@H]1c1c(O)cc(CCCCC)cc1O [CBD, cannabidiol]
therapeutic dose: 10 mg/kg/day
